# Results from patent US20020156129A1, “Method of treating pruritus and a pharmaceutical composition for the method” (priority 2001, published 2002).
# Key:
# [1] = tested on: ICR mice, cutaneous barrier function disrupted by acetone/diethylether and water; assay: Scratching action of mice with disrupted cutaneous barrier function, subcutaneous administration (Example 1); type: in vivo, mouse; conditions: subcutaneous 10 mg/kg at barrier-disrupted site, 15 min before recording; scratching counted for 2 hours; mean ± standard error, 8 mice
# Method: A number of scratching action of 8 mice per 2 hours is shown by the average percentage±standard error based on the average of the control group (100%). “S” represents the control group which received saline, “L” represents L-NAME administrated group and “D” represents D-NAME administrated group.
# The evaluation of the therapeutic effects of the pharmaceutical composition of the present invention may be conducted by using the small test animals produced by the method developed by the inventors, such as mice of which the cutaneous barrier function have been disrupted. Such animals may be produced according to the following procedure: An noninflammation dermal lesion caused by the disruption of cutaneous barrier function may be induced by degreasing the small test animals by applying an organic solvent to the glabrous skin of the animals and then treating with water. […] For example, the hydration of the stratum corneum can be determined by a technique of conductimetry, determination of electrostatic capacity or FT-IR method. Transepidermal water loss can be non-invasively determined with an electric measuring instrument or the like so as not to influence the scratching action. […]
# NC mouse = conditions: administration of NOS inhibitor; cited from earlier work
Compound,number of the scratching action relative to saline control group (100%) [1],effect on scratching action (NC mouse)
"COC(=O)[C@H](N)CCCN=C(N)N[N+](=O)[O-] [D-NAME, Nw-nitro-D-arginine methyl ester]",90.9±15.2%,
"COC(=O)[C@@H](N)CCCNC(=N)N[N+](=O)[O-] [L-NAME, Nw-nitro-L-arginine methyl ester]",27.9±6.4%,scratching action can be suppressed
